Reference: patent US20170304411A1, “TOPICAL FORMULATION FOR TREATING SKIN OR MUCOSAL INFECTIONS, PREPARATION METHOD AND USES THEREOF” (HPRD - HEALTH PRODUCTS RESEARCH AND DEVELOPMENT LDA, priority 2014, published 2017)

Assays:
[1] = test system: biofilms from C. albicans strains; assay: Checkerboard bromelain/clotrimazole, metabolic activity of biofilms (XTT reduction assay); assay type: cell-based; conditions: increasing concentrations of clotrimazole alone; tested C. albicans strains
Description: Following the washing step of microplates, the number of metabolically active cells available to metabolize XTT is reduced, leading to the overall reduction on metabolic activity.

[2] = test system: biofilms from C. albicans strains; conditions: clotrimazole alone, without bromelain
[3] = test system: planktonic cells of different Candida species, including C. albicans; assay: Direct fungistatic or fungicidal activity against planktonic cells; assay type: cell-based; conditions: previous studies by the applicant's team
Description: When bromelain is added, an increase of activity reduction is observed, dependent on the enzyme concentration (the addition of a 250 μg/mL bromelain solution leads to metabolic activity reductions near 80% for both strains). […] Thus, the increase in metabolic activity reduction shown for the combination of bromelain and clotrimazole is not due to a direct fungistatic activity of the enzyme, but to a degradation of the biofilm matrix. The degradation of this matrix allows for the penetration of clotrimazole in the biofilm favouring its antimicrobial action.

[4] = applied with no dilution on skin and mucosa as occlusive patch; cited from earlier work
[5] = after application in the eye; cited from earlier work

## Clc1ccccc1C(c1ccccc1)(c1ccccc1)n1ccnc1 [clotrimazole]
[1]
  reduction of metabolic activity: ≤ 60%
[2]
  reduction of biofilm biomass: limited

## bromelain
[3]
  direct fungistatic or fungicidal activity: does not exhibit direct fungistatic or fungicidal activity

## CC(=O)OCC(COC(C)=O)OC(C)=O [triacetin]
[4]
  irritation potential: low irritation potential
[5]
  ocular irritation: induces an ocular irritation it does not cause harm
